# Reference: DBAASP
# Key:
# Assay in all cases: ≥ marks a high value that may be exact or a test limit, other limits are often not marked, values filed in µg/mL are converted to µM
# [1] = tested on: Bacillus cereus
# [2] = tested on: Staphylococcus aureus
# [3] = tested on: Escherichia coli
# [4] = tested on: Pseudomonas aeruginosa ATCC 15692
# [5] = tested on: Saccharomyces cerevisiae
# [6] = tested on: Staphylococcus aureus ATCC 25923
# [7] = tested on: Micrococcus luteus
# [8] = tested on: Escherichia coli ATCC 25922
# [9] = tested on: Enterococcus faecalis NCTC 12697
# [10] = tested on: Candida albicans NCYC 1467
# [11] = tested on: Pseudomonas aeruginosa ATCC 27853
# [12] = tested on: Escherichia coli NCTC 10418
# [13] = tested on: Klebsiella pneumoniae ATCC 43816
# [14] = tested on: Staphylococcus aureus NCTC 10788
# [15] = tested on: Staphylococcus aureus NCTC 12493
# [16] = tested on: Bacillus subtilis 168
# [17] = tested on: Candida albicans F7-39/IDE99
# [18] = tested on: Pseudomonas aeruginosa
# [19] = tested on: Escherichia coli B
# [20] = tested on: Micrococcus luteus ATCC 9341
# [21] = tested on: Salmonella typhimurium
# [22] = tested on: Klebsiella pneumoniae
# [23] = tested on: Escherichia coli DH5alpha
# [24] = tested on: Enterococcus faecalis
# [25] = tested on: Acinetobacter baumannii
# [26] = tested on: Staphylococcus epidermidis
structure (smiles),measurement,setting,value
CC(C)C[C@H](NC(=O)[C@H](CCCCN)NC(=O)[C@H](Cc1ccccc1)NC(=O)[C@@H](NC(=O)[C@@H](NC(=O)CNC(=O)[C@H](CC(C)C)NC(=O)[C@@H](N)Cc1ccccc1)C(C)C)C(C)C)C(=O)N[C@@H](C)C(=O)N[C@@H](CO)C(=O)N[C@@H](CCCCN)C(=O)N[C@H](C(=O)N[C@@H](Cc1ccccc1)C(=O)N1CCC[C@H]1C(=O)N[C@@H](C)C(=O)N[C@H](C(=O)N[C@H](C(=O)NCC(=O)N[C@@H](CCCCN)C(=O)N[C@H](C(=O)O)C(C)C)C(C)C)C(C)C)C(C)C [FLGVVFKLASKVFPAVVGKV],MIC,[1],30.4 µM
same,MIC,[2],15.2 µM
same,MIC,[3],122 µM
CC[C@H](C)[C@H](NC(=O)[C@H](Cc1ccccc1)NC(=O)CNC(=O)[C@H](CCCCN)NC(=O)[C@H](C)NC(=O)[C@H](Cc1ccccc1)NC(=O)[C@H](CCCCN)NC(=O)[C@H](CCCCN)NC(=O)[C@H](C)NC(=O)[C@H](CO)NC(=O)[C@H](Cc1cnc[nH]1)NC(=O)[C@H](C)NC(=O)[C@@H](NC(=O)[C@H](CCC(=O)O)NC(=O)[C@H](CCCCN)NC(=O)[C@H](CC(C)C)NC(=O)CN)C(C)C)C(=O)N[C@@H](CO)C(=O)NCC(=O)N[C@@H](CC(C)C)C(=O)N[C@H](C(=O)NCC(=O)N[C@@H](CO)C(=O)O)[C@@H](C)O [GLKEVAHSAKKFAKGFISGLTGS],MIC,[4],≥ 256 µM
same,MIC,[5],≥ 128 µM
same,MIC,[6],> 256 µM
same,MIC,[7],≥ 32 µM
same,MIC,[8],64 µM
CC[C@H](C)[C@H](NC(=O)[C@H](CCCCN)NC(=O)[C@H](CO)NC(=O)[C@H](Cc1c[nH]c2ccccc12)NC(=O)[C@H](CC(C)C)NC(=O)CN)C(=O)N[C@@H](CCCCN)C(=O)N[C@@H](CCCCN)C(=O)N[C@@H](C)C(=O)N[C@@H](C)C(=O)N[C@@H](CCCCN)C(=O)N[C@H](C(=O)N[C@@H](C)C(=O)NCC(=O)N[C@@H](CCCCN)C(=O)N[C@@H](C)C(=O)N[C@@H](C)C(=O)N[C@@H](CC(C)C)C(=O)NCC(=O)N[C@@H](Cc1ccccc1)C(=O)N[C@H](C(=O)N[C@@H](CC(N)=O)C(=O)N[C@@H](CCCCN)C(=O)N[C@@H](CCSC)C(=O)N[C@H](C(N)=O)C(C)C)C(C)C)[C@@H](C)O [GLWSKIKKAAKTAGKAALGFVNKMV],MIC,[9],2 µM
same,MIC,[10],4 µM
same,MIC,[11],4 µM
same,MIC,[12],2 µM
same,MIC,[13],2 µM
same,MIC,[14],2 µM
same,MIC,[15],2 µM
CC[C@H](C)[C@H](NC(=O)[C@H](C)NC(=O)[C@H](CCCCN)NC(=O)[C@H](C)NC(=O)[C@H](C)NC(=O)[C@H](CCCCN)NC(=O)CNC(=O)[C@H](Cc1ccccc1)NC(=O)[C@H](C)NC(=O)[C@@H](NC(=O)CNC(=O)[C@H](C)NC(=O)[C@H](CCCCN)NC(=O)[C@@H](NC(=O)[C@H](C)NC(=O)[C@H](CCSC)NC(=O)CN)[C@@H](C)O)[C@@H](C)O)C(=O)N[C@H](C(=O)NCC(=O)N[C@@H](C)C(=O)N[C@@H](C)C(=O)N[C@@H](CC(C)C)C(=O)O)[C@@H](C)CC [GMATKAGTAFGKAAKAIIGAAL],MIC,[4],≥ 128 µM
same,MIC,[5],≥ 64 µM
same,MIC,[6],> 256 µM
same,MIC,[7],2 µM
same,MIC,[8],16 µM
CC[C@H](C)[C@H](NC(=O)[C@H](CC(C)C)NC(=O)[C@H](Cc1cnc[nH]1)NC(=O)CNC(=O)[C@H](CC(C)C)NC(=O)[C@@H](NC(=O)[C@H](CCCCN)NC(=O)[C@H](CO)NC(=O)[C@H](Cc1c[nH]c2ccccc12)NC(=O)[C@H](CCSC)NC(=O)CN)[C@@H](C)CC)C(=O)N[C@@H](CCCN=C(N)N)C(N)=O [GMWSKILGHLIR],MIC,[16],0.8 µM
same,MIC,[2],7.7 µM
same,MIC,[17],6.2 µM
same,MIC,[18],45 µM
same,MIC,[19],3.8 µM
CSCC[C@H](NC(=O)CN)C(=O)N[C@@H](Cc1c[nH]c2ccccc12)C(=O)N[C@@H](CO)C(=O)N[C@@H](CCCCN)C(=O)N[C@@H](CC(C)C)C(=O)N[C@@H](CC(C)C)C(=O)NCC(=O)N[C@@H](Cc1cnc[nH]1)C(=O)N[C@@H](CC(C)C)C(=O)N[C@@H](CC(C)C)C(=O)N[C@@H](CCCN=C(N)N)C(N)=O [GMWSKLLGHLLR],MIC,[16],1.3 µM
same,MIC,[2],7.7 µM
same,MIC,[17],5 µM
same,MIC,[18],20.2 µM
same,MIC,[19],3 µM
CC[C@H](C)[C@H](N)C(=O)N[C@@H](CC(C)C)C(=O)N1CCC[C@H]1C(=O)N[C@@H](C)C(=O)N[C@@H](CCCCN)C(=O)N[C@@H](Cc1c[nH]c2ccccc12)C(=O)N1CCC[C@H]1C(=O)N[C@@H](Cc1c[nH]c2ccccc12)C(=O)N[C@@H](Cc1c[nH]c2ccccc12)C(=O)N1CCC[C@H]1C(=O)N[C@@H](Cc1c[nH]c2ccccc12)C(=O)N[C@@H](CCCN=C(N)N)C(=O)N[C@@H](CCCN=C(N)N)C(N)=O [ILPAKWPWWPWRR],MIC,[20],0.4 µM
CC[C@H](C)[C@H](N)C(=O)N[C@@H](CC(C)C)C(=O)N1CCC[C@H]1C(=O)N[C@@H](Cc1c[nH]c2ccccc12)C(=O)N[C@@H](CCCCN)C(=O)N[C@@H](Cc1c[nH]c2ccccc12)C(=O)N[C@@H](C)C(=O)N[C@@H](Cc1c[nH]c2ccccc12)C(=O)N[C@@H](Cc1c[nH]c2ccccc12)C(=O)N[C@@H](C)C(=O)N[C@@H](Cc1c[nH]c2ccccc12)C(=O)N[C@@H](CCCN=C(N)N)C(=O)N[C@@H](CCCN=C(N)N)C(N)=O [ILPWKWAWWAWRR],MIC,[21],25 µM
same,MIC,[22],25 µM
same,MIC,[23],15 µM
same,MIC,[18],100 µM
CSCC[C@H](NC(=O)[C@H](C)NC(=O)[C@H](CC(C)C)NC(=O)[C@H](CCCCN)NC(=O)[C@H](CC(C)C)NC(=O)[C@H](CC(C)C)NC(=O)[C@H](CCCCN)NC(=O)[C@H](CCCCN)NC(=O)[C@@H](NC(=O)[C@@H](N)CC(C)C)C(C)C)C(=O)NCC(=O)N[C@@H](Cc1ccccc1)C(=O)NCC(N)=O [LVKKLLKLAMGFG],MIC,[16],3.7 µM
same,MIC,[2],90 µM
same,MIC,[17],25 µM
same,MIC,[18],> 100 µM
same,MIC,[19],14.7 µM
CC[C@H](C)[C@H](NC(=O)[C@@H](NC(=O)[C@H](CS)NC(=O)[C@H](Cc1ccc(O)cc1)NC(=O)[C@@H](NC(=O)[C@H](CO)NC(=O)[C@@H]1CCCN1C(=O)[C@@H](NC(=O)[C@@H](NC(=O)[C@H](CCCCN)NC(=O)[C@H](CO)NC(=O)[C@H](C)NC(=O)[C@H](CC(C)C)NC(=O)[C@H](CCCCN)NC(=O)[C@H](Cc1ccccc1)NC(=O)[C@@H](NC(=O)[C@@H](N)C(C)C)C(C)C)C(C)C)C(C)C)C(C)C)[C@@H](C)O)C(=O)N[C@H](C(=O)N[C@@H](CCCCN)C(=O)N[C@@H](CCCCN)C(=O)O)[C@@H](C)O [VVFKLASKVVPSVYCTITKK],MIC,[1],≥ 116 µM
same,MIC,[3],116 µM
CC[C@H](C)[C@H](NC(=O)CNC(=O)[C@H](CCCN=C(N)N)NC(=O)[C@H](Cc1ccc(O)cc1)NC(=O)[C@H](CC(C)C)NC(=O)[C@H](Cc1cnc[nH]1)NC(=O)CNC(=O)[C@H](Cc1ccccc1)NC(=O)[C@@H](N)Cc1c[nH]c2ccccc12)C(=O)N[C@H](C(=O)N[C@@H](CO)C(=O)N[C@H](C(=O)N[C@H](C(=O)N[C@@H](CCCCN)C(=O)N[C@@H](Cc1cnc[nH]1)C(=O)N[C@H](C(=O)N[C@@H](Cc1cnc[nH]1)C(=O)NCC(=O)N[C@@H](CC(C)C)C(=O)N[C@@H](CC(C)C)C(=O)N[C@@H](CO)C(=O)NCC(=O)O)C(C)C)C(C)C)C(C)C)[C@@H](C)O [WFGHLYRGITSVVKHVHGLLSG],MIC,[24],10.3 µM
same,MIC,[22],21 µM
same,MIC,[2],20.6 µM
same,MIC,[3],5.2 µM
same,MIC,[18],10.3 µM
same,MIC,[25],5.2 µM
same,MIC,[26],10.3 µM
